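Values below derive from 48-hour exposures of cells grown in 96-well plates, with endpoints linearly interpolated between the two concentrations bracketing the appropriate inhibition level. TGI marks complete inhibition of growth.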
Key:
Assay in all cases: NCI tumour cell line growth inhibition, 48 h
[1] = test system: 786-0 renal
[2] = test system: A498 renal
[3] = test system: A549 NSCLC
[4] = test system: ACHN renal
[5] = test system: CAKI-1 renal
[6] = test system: CCRF-CEM leukemia
[7] = test system: COLO 205 colon
[8] = test system: DLD-1 colon
[9] = test system: DMS 114 small cell lung
[10] = test system: DMS 273 small cell lung
[11] = test system: EKVX NSCLC
[12] = test system: HCT-116 colon
[13] = test system: HL-60(TB) leukemia
[14] = test system: HOP-18 NSCLC
[15] = test system: HOP-62 NSCLC
[16] = test system: HOP-92 NSCLC
[17] = test system: HT29 colon
[18] = test system: IGROV1 ovarian
[19] = test system: K-562 leukemia
[20] = test system: KM12 colon
[21] = test system: KM20L2 colon
[22] = test system: LOX IMVI melanoma
[23] = test system: M14 melanoma
[24] = test system: M19-MEL melanoma
[25] = test system: MALME-3M melanoma
[26] = test system: MOLT-4 leukemia
[27] = test system: NCI-H226 lung
[28] = test system: NCI-H23 lung
[29] = test system: NCI-H460 lung
[30] = test system: NCI-H522 lung
[31] = test system: OVCAR-3 ovarian
[32] = test system: OVCAR-4 ovarian
[33] = test system: OVCAR-5 ovarian
[34] = test system: OVCAR-8 ovarian
[35] = test system: RPMI-8226 leukemia
[36] = test system: RXF 393 renal
[37] = test system: RXF-631 renal
[38] = test system: SF-268 CNS
[39] = test system: SF-295 CNS
[40] = test system: SF-539 CNS
[41] = test system: SK-MEL-2 melanoma
[42] = test system: SK-MEL-28 melanoma
[43] = test system: SK-MEL-5 melanoma
[44] = test system: SK-OV-3 ovarian
[45] = test system: SN12C renal
[46] = test system: SNB-19 CNS
[47] = test system: SNB-75 CNS
[48] = test system: SNB-78 CNS
[49] = test system: SR leukemia
[50] = test system: SW-620 colon
[51] = test system: TK-10 renal
[52] = test system: U251 CNS
[53] = test system: UACC-257 melanoma
[54] = test system: UACC-62 melanoma
[55] = test system: UO-31 renal
[56] = test system: XF 498 CNS
[57] = test system: HCC-2998 colon
[58] = test system: HCT-15 colon
[59] = test system: LXFL 529 NSCLC

OC1C2C=CCC1CCC2 (stereo unspecified)
TGI [1]: > 100 µM
TGI [2]: > 100 µM
TGI [3]: > 100 µM
TGI [4]: > 100 µM
TGI [5]: > 100 µM
TGI [6]: > 100 µM
TGI [7]: > 100 µM
TGI [8]: > 100 µM
TGI [9]: > 100 µM
TGI [10]: > 100 µM
TGI [11]: > 100 µM
TGI [12]: > 100 µM
TGI [13]: > 100 µM
TGI [14]: > 100 µM
TGI [15]: > 100 µM
TGI [16]: > 100 µM
TGI [17]: > 100 µM
TGI [18]: > 100 µM
TGI [19]: > 100 µM
TGI [20]: > 100 µM
TGI [21]: > 100 µM
TGI [22]: > 100 µM
TGI [23]: > 100 µM
TGI [24]: > 100 µM
TGI [25]: > 100 µM
TGI [26]: > 100 µM
TGI [27]: > 100 µM
TGI [28]: > 100 µM
TGI [29]: > 100 µM
TGI [30]: > 100 µM
TGI [31]: > 100 µM
TGI [32]: > 100 µM
TGI [33]: > 100 µM
TGI [34]: > 100 µM
TGI [35]: > 100 µM
TGI [36]: > 100 µM
TGI [37]: > 100 µM
TGI [38]: > 100 µM
TGI [39]: > 100 µM
TGI [40]: > 100 µM
TGI [41]: > 100 µM
TGI [42]: > 100 µM
TGI [43]: > 100 µM
TGI [44]: > 100 µM
TGI [45]: > 100 µM
TGI [46]: > 100 µM
TGI [47]: > 100 µM
TGI [48]: > 100 µM
TGI [49]: > 100 µM
TGI [50]: > 100 µM
TGI [51]: > 100 µM
TGI [52]: > 100 µM
TGI [53]: > 100 µM
TGI [54]: > 100 µM
TGI [55]: > 100 µM
TGI [56]: > 100 µM

C=C1CC(C/C=C(\C)CC2CC(=C)C(=O)O2)OC1=O (stereo unspecified)
TGI [1]: > 100 µM
TGI [2]: > 100 µM
TGI [3]: > 100 µM
TGI [4]: > 100 µM
TGI [5]: > 100 µM
TGI [6]: > 100 µM
TGI [7]: > 100 µM
TGI [8]: > 100 µM
TGI [9]: > 100 µM
TGI [10]: > 100 µM
TGI [11]: > 100 µM
TGI [57]: > 100 µM
TGI [12]: > 100 µM
TGI [58]: > 100 µM
TGI [13]: > 100 µM
TGI [14]: > 100 µM
TGI [15]: > 100 µM
TGI [16]: > 100 µM
TGI [17]: > 100 µM
TGI [18]: > 100 µM
TGI [19]: > 100 µM
TGI [20]: > 100 µM
TGI [21]: > 100 µM
TGI [22]: > 100 µM
TGI [59]: > 100 µM
TGI [23]: > 100 µM
TGI [24]: > 100 µM
TGI [25]: > 100 µM
TGI [26]: > 100 µM
TGI [28]: > 100 µM
TGI [29]: > 100 µM
TGI [31]: > 100 µM
TGI [32]: > 100 µM
TGI [33]: > 100 µM
TGI [34]: > 100 µM
TGI [36]: > 100 µM
TGI [37]: > 100 µM
TGI [38]: > 100 µM
TGI [39]: > 100 µM
TGI [40]: > 100 µM
TGI [41]: > 100 µM
TGI [42]: > 100 µM
TGI [43]: > 100 µM
TGI [44]: > 100 µM
TGI [45]: > 100 µM
TGI [46]: > 100 µM
TGI [47]: > 100 µM
TGI [48]: > 100 µM
TGI [49]: > 100 µM
TGI [50]: > 100 µM
TGI [51]: > 100 µM
TGI [52]: > 100 µM
TGI [53]: > 100 µM
TGI [54]: > 100 µM
TGI [55]: > 100 µM
TGI [56]: > 100 µM

N#Cc1ccccc1Nc1ccccc1S
TGI [1]: 78.3 µM
TGI [2]: > 100 µM
TGI [3]: > 100 µM
TGI [4]: > 100 µM
TGI [5]: > 100 µM
TGI [6]: 77.4 µM
TGI [7]: > 100 µM
TGI [8]: > 100 µM
TGI [9]: 42.8 µM
TGI [10]: > 100 µM
TGI [11]: > 100 µM
TGI [13]: > 100 µM
TGI [14]: > 100 µM
TGI [15]: > 100 µM
TGI [16]: 80.3 µM
TGI [17]: > 100 µM
TGI [18]: 71.2 µM
TGI [19]: > 100 µM
TGI [20]: > 100 µM
TGI [22]: 33.6 µM
TGI [59]: 59.3 µM
TGI [24]: > 100 µM
TGI [25]: 80.3 µM
TGI [26]: 33.1 µM
TGI [27]: 43.9 µM
TGI [28]: > 100 µM
TGI [29]: > 100 µM
TGI [32]: > 100 µM
TGI [33]: 97.8 µM
TGI [34]: 94 µM
TGI [36]: 53 µM
TGI [37]: > 100 µM
TGI [38]: > 100 µM
TGI [39]: 65.4 µM
TGI [40]: 35.8 µM
TGI [41]: > 100 µM
TGI [42]: > 100 µM
TGI [43]: 44.8 µM
TGI [44]: > 100 µM
TGI [45]: 97.1 µM
TGI [46]: 60.5 µM
TGI [48]: > 100 µM
TGI [49]: > 100 µM
TGI [50]: 47.1 µM
TGI [51]: > 100 µM
TGI [53]: > 100 µM
TGI [54]: 37.8 µM
TGI [55]: 72.4 µM
TGI [56]: 40 µM

Source: PubChem BioAssay (NCI)
